Test results from US11820773B2, “Tricyclic compounds” (ALIGOS THERAPEUTICS, INC., priority 2020, dated 2023).

tested on: HBV; assay: HBV-DNA antiviral assay using HepG2.117 cells (intracellular HBV DNA by qPCR); format: cell-based, genotype D HBV; conditions: HBV DNA inhibition, 3 days incubation, 2% DMSO
Method: The following assay procedure describes the HBV antiviral assay, using HepG2.117 cells, which carry a stably integrated genotype D HBV genome under the control of a Tet-off promoter, and intracellular HBV DNA quantification as endpoint. Cell viability is assessed in parallel by measuring the intracellular ATP content using CellTiter-Glo 2.0 (Promega).
On day 0, HepG2.117 cells (which are maintained in routine cell culture with doxycycline present in the medium at a final concentration of 1 μg/mL) were seeded in 96-well plates (white with clear bottom) at a density of 2.0×10^4 cells/well (0.1 mL/well) in medium without doxycycline to induce pgRNA transcription and subsequent formation of HBV particles. The cells were incubated at 37° C. and 5% CO2.
On day 1, medium was removed from each well, the test articles were diluted in culture medium without doxcycyline and 100 μL was added to cell culture wells (9 concentrations, 4-fold dilution). For each plate, 6 untreated (merely DMSO) wells were included. The final concentration of DMSO in the culture medium was 2%. Each plate was prepared in duplicate (one for HBV DNA extraction, one for CellTiter-Glo 2.0 measurement). The cells were incubated at 37° C. and 5% CO2 for 3 days.
On day 4, cell viability was assessed using CellTiter-Glo 2.0 and cell lysates were prepared for HBV DNA extraction and subsequent quantification by qPCR.
HBV DNA Quantification by qPCR
Medium was removed from each well and 100 μL of 0.33% NP-40 in H2O was added to each well. Plates were sealed, incubated at 4° C. for 5 mins, vortexed extensively and centrifuged briefly. Next, 35 μL of lysate was added to 65 μL QuickExtract DNA Extraction Solution (Epicentre) in a PCR plate for each well. PCR plate was incubated at 65° C. for 6 mins, 98° C. for 2 mins and finally cooled to 4° C. HBV DNA was then quantified by qPCR with HBV-specific primers and probes as specified in Table 1 using the Bio-Rad SSOAdvanced Universal Probes Supermix on a CFX96 machine (Bio-Rad). The PCR cycle program consisted of 95° C. for 3 mins, followed by 40 cycles at 95° C. for 10 sec and 60° C. for 30 sec.
A DNA standard was prepared by dilution of an IDT gBlock corresponding to the amplicon with concentrations ranging from 10^2 to 10^8 copies/input (i.e. per 4 μL) and used to generate a standard curve by plotting Cq values vs. HBV DNA standard concentration. The quantity of HBV DNA in each sample was determined by interpolating from the standard curve.
Cell viability was calculated as follows: % Cell viability=(luminescence value of test sample)/(average luminescence value of 2% DMSO control)×100%. HBV DNA inhibition was calculated as follows: 100−(HBV DNA copy number of test sample)/(average HBV DNA copy number of 2% DMSO control)×100%. No normalization to entecavir was required due to the excellent dynamic window of this assay. The CC50, EC50 and EC90 values were determined by dose-response curves fitted by GraphPad Prism using “log (agonist) vs. response—Variable slope”.

Row | Structure (SMILES) | EC50
1 | CNC(=O)c1ccc(-n2c(=O)c3c(n4ncc(CC5CCCC5)c24)CN(C(=O)c2ccc(Br)c(Cl)c2)CC3)cc1 [Compound 11, 4-[12-(4-bromo-3-chloro-benzoyl)-5-(cyclopentylmethyl)-8-oxo-2,3,7,12-tetrazatricyclo[7.4.0.0^2,6]trideca-1(9),3,5-trien-7-yl]-N-methyl-benzamide] | < 50 nM

same assay, conditions: Hepatitis B virus, 72 h, HBV DNA inhibition, 3 days incubation, 2% DMSO

Row | Structure (SMILES) | EC50
2 | CNC(=O)c1ccc(-n2c(=O)c3c(n4ncc(CC5CCC5)c24)CN(C(=O)c2ccc(Br)c(C(F)(F)F)c2)CC3)cc1 [Compound 16, 4-[12-[4-bromo-3-(trifluoromethyl)benzoyl]-5-(cyclobutylmethyl)-8-oxo-2,3,7,12-tetrazatricyclo[7.4.0.0^2,6]trideca-1(9),3,5-trien-7-yl]-N-methyl-benzamide] | < 50 nM
3 | C[C@@H]1Cc2c(n3ncc(Cc4ccccc4)c3n(-c3ccc(-c4nc(=O)on4C)cc3)c2=O)CN1C(=O)c1ccc(Br)c(C(F)(F)F)c1 (stereo in doubt) [Compound 44a, 2-methyl-3-[4-[rac-(11R)-5-benzyl-12-[4-bromo-3-(trifluoromethyl)benzoyl]-11-methyl-8-oxo-2,3,7,12-tetrazatricyclo[7.4.0.0^2,6]trideca-1(9),3,5-trien-7-yl]phenyl]-1,2,4-oxadiazol-5-one] | < 50 nM
4 | CNC(=O)c1ccc(-n2c(=O)c3c(n4ncc(CC(C)C)c24)CN(C(=O)c2ccc(Br)c(C(F)(F)F)c2)[C@H](C)C3)cc1 (stereo in doubt) [Compound 50a, N-methyl-4-[rac-(11R)-12-[4-bromo-3-(trifluoromethyl)benzoyl]-5-isobutyl-11-methyl-8-oxo-2,3,7,12-tetrazatricyclo[7.4.0.0^2,6]trideca-1(9),3,5-trien-7-yl]benzamide] | < 50 nM
5 | CNc1nsc2cc(-n3c(=O)c4c(n5ncc(Cc6ccccc6)c35)CN(C(=O)c3ccc(Br)c(Cl)c3)CC4)ccc12 [Compound 5, 5-benzyl-12-(4-bromo-3-chloro-benzoyl)-7-[3-(methylamino)-1,2-benzothiazol-6-yl]-2,3,7,12-tetrazatricyclo[7.4.0.0^2,6]trideca-1(9),3,5-trien-8-one] | < 50 nM
6 | CNC(=O)c1ccc(-n2c(=O)c3c(n4ncc(Cc5ccccc5)c24)CN(C(=O)c2ccc(Br)c(C)c2)CC3)cc1 [Compound 2, 4-[5-benzyl-12-(4-bromo-3-methyl-benzoyl)-8-oxo-2,3,7,12-tetrazatricyclo[7.4.0.0″2,6]trideca-1(9),3,5-trien-7-yl]-N-methyl-benzamide] | < 50 nM
7 | Cc1nn[nH]c1-c1ccc(-n2c(=O)c3c(n4ncc(CC5CCC5)c24)CN(C(=O)c2ccc(Br)c(C(F)(F)F)c2)[C@@H](C)C3)cc1 (stereo in doubt) [Compound 76b, rac-(11S)-12-[4-bromo-3-(trifluoromethyl)benzoyl]-5-(cyclobutylmethyl)-11-methyl-7-[4-(4-methyl-1H-triazol-5-yl)phenyl]-2,3,7,12-tetrazatricyclo[7.4.0.0^2,6]trideca-1(9),3,5-trien-8-one] | 50 to 500 nM
8 | CNC(=O)c1cnc(-n2c(=O)c3c(n4ncc(CC(C)C)c24)CN(C(=O)c2ccc(Br)c(C(F)(F)F)c2)[C@H](C)C3)nc1 (stereo in doubt) [Compound 85a, N-methyl-2-[rac-(11R)-12-[4-bromo-3-(trifluoromethyl)benzoyl]-5-isobutyl-11-methyl-8-oxo-2,3,7,12-tetrazatricyclo[7.4.0.0^2,6]trideca-1(9),3,5-trien-7-yl]pyrimidine-5-carboxamide] | < 50 nM
9 | CNC(=O)c1ccc(-n2c(=O)c3c(n4ncc(CC5CCC5)c24)CN(C(=O)c2ccc(Br)c(C(F)(F)F)c2)[C@H](C)C3)cc1 (stereo in doubt) [Compound 37a, N-methyl-4-[rac-(11R)-12-[4-bromo-3-(trifluoromethyl)benzoyl]-5-(cyclobutylmethyl)-11-methyl-8-oxo-2,3,7,12-tetrazatricyclo[7.4.0.0^2,6]trideca-1(9),3,5-trien-7-yl]benzamide] | < 50 nM
10 | CNc1n[nH]c2cc(-n3c(=O)c4c(n5ncc(CC6CC6)c35)CN(C(=O)c3ccc(Br)c(Cl)c3)CC4)ccc12 [Compound 27, 12-(4-bromo-3-chloro-benzoyl)-5-(cyclopropylmethyl)-7-[3-(methylamino)-1H-indazol-6-yl]-2,3,7,12-tetrazatricyclo[7.4.0.0^2,6]trideca-1(9),3,5-trien-8-one] | < 50 nM
11 | CC(C)Cc1cnn2c3c(c(=O)n(-c4ccc(-c5n[nH]c(=O)n5C)cc4)c12)C[C@@H](C)N(C(=O)c1ccc(Br)c(C(F)(F)F)c1)C3 (stereo in doubt) [Compound 81a, rac-(11R)-12-[4-bromo-3-(trifluoromethyl)benzoyl]-5-isobutyl-11-methyl-7-[4-(4-methyl-5-oxo-1H-1,2,4-triazol-3-yl)phenyl]-2,3,7,12-tetrazatricyclo[7.4.0.0^2,6]trideca-1(9),3,5-trien-8-one] | < 50 nM
12 | CC(C)Cc1cnn2c3c(c(=O)n(-c4ccc5c(c4)ncn5C)c12)C[C@H](C)N(C(=O)c1ccc(Br)c(C(F)(F)F)c1)C3 (stereo in doubt) [Compound 86b, rac-(11S)-12-[4-bromo-3-(trifluoromethyl)benzoyl]-5-isobutyl-11-methyl-7-(1-methylbenzimidazol-5-yl)-2,3,7,12-tetrazatricyclo[7.4.0.0^2,6]trideca-1(9),3,5-trien-8-one] | 50 to 500 nM
13 | CNC(=O)c1ccc(-n2c(=O)c3c(n4ncc(Cc5ccccc5)c24)CN(C(=O)c2ccc(Br)c(C(F)(F)F)c2)[C@@H](C2CC2)C3)cc1 (stereo in doubt) [Compound 104a, N-methyl-4-[rac-(11R)-5-benzyl-12-[4-bromo-3-(trifluoromethyl)benzoyl]-11-cyclopropyl-8-oxo-2,3,7,12-tetrazatricyclo[7.4.0.0^2,6]trideca-1(9),3,5-trien-7-yl]benzamide] | < 50 nM
14 | CC(C)Cc1cnn2c3c(c(=O)n(-c4ccc(-c5cnnn5C)cc4)c12)C[C@@H](C)N(C(=O)c1ccc(Br)c(C(F)(F)F)c1)C3 (stereo in doubt) [Compound 102a, rac-(11R)-12-[4-bromo-3-(trifluoromethyl)benzoyl]-5-isobutyl-11-methyl-7-[4-(3-methyltriazol-4-yl)phenyl]-2,3,7,12-tetrazatricyclo[7.4.0.0^2,6]trideca-1(9),3,5-trien-8-one] | < 50 nM
15 | Cc1cnn(-c2ccc(-n3c(=O)c4c(n5ncc(Cc6ccccc6)c35)CN(C(=O)c3ccc(Br)c(Cl)c3)CC4)cc2)c1 [Compound 7, 5-benzyl-12-(4-bromo-3-chloro-benzoyl)-7-[4-(4-methylpyrazol-1-yl)phenyl]-2,3,7,12-tetrazatricyclo[7.4.0.0^2,6]trideca-1(9),3,5-trien-8-one] | < 50 nM
16 | CNC(=O)c1cnc(-n2c(=O)c3c(n4ncc(Cc5ccccc5)c24)CN(C(=O)c2ccc(Br)c(C(F)(F)F)c2)[C@@H](C)C3)nc1 (stereo in doubt) [Compound 69b, N-methyl-2-[rac-(11S)-5-benzyl-12-[4-bromo-3-(trifluoromethyl)benzoyl]-11-methyl-8-oxo-2,3,7,12-tetrazatricyclo[7.4.0.0^2,6]trideca-1(9),3,5-trien-7-yl]pyrimidine-5-carboxamide] | < 50 nM
17 | CC(C)Cc1cnn2c3c(c(=O)n(-c4ccc(-c5nncn5C)cc4)c12)C[C@@H](C)N(C(=O)c1ccc(Br)c(Cl)c1)C3 (stereo in doubt) [Compound 68a, rac-(11R)-12-(4-bromo-3-chloro-benzoyl)-5-isobutyl-11-methyl-7-[4-(4-methyl-1,2,4-triazol-3-yl)phenyl]-2,3,7,12-tetrazatricyclo[7.4.0.0^2,6]trideca-1(9),3,5-trien-8-one] | < 50 nM
18 | C[C@@H]1Cc2c(n3ncc(Cc4ccccc4)c3n(-c3ccc(-c4ncnn4C)cc3)c2=O)CN1C(=O)c1ccc(Br)c(C(F)(F)F)c1 (stereo in doubt) [Compound 49a, rac-(11R)-5-benzyl-12-[4-bromo-3-(trifluoromethyl)benzoyl]-11-methyl-7-[4-(2-methyl-1,2,4-triazol-3-yl)phenyl]-2,3,7,12-tetrazatricyclo[7.4.0.0^2,6]trideca-1(9),3,5-trien-8-one] | < 50 nM
